Values of other authors as cited in US5989583A, “Solid lipid compositions of lipophilic compounds for enhanced oral bioavailability” (Pharmos Ltd., priority 1996, dated 1999).

What was measured:
[1] = test system: patients with severe heart failure; details: 40 patients with severe heart failure, long term treatment
periodontal disease = details: supplements containing CoQ10
[2] = test system: cultured cerebellar neurons; details: age-related and excitotoxin-induced degeneration
[3] = for Water solubility (in words): water / aqueous solutions
[4] = 20 mg THC in a sesame oil formulation

SMILES: COC1=C(OC)C(=O)C(C/C=C(\C)CC/C=C(\C)CC/C=C(\C)CC/C=C(\C)CC/C=C(\C)CC/C=C(\C)CC/C=C(\C)CC/C=C(\C)CC/C=C(\C)CCC=C(C)C)=C(C)C1=O [CoQ10, 2,3-dimethoxy-5-methyl-6-decaprenyl-1,4-benzoquinone]
- oral bioavailability / systemic availability: very low
- patients showing improvement in their condition [1]: 69%
- Effect on periodontal disease (periodontal disease): the progress of the disease was not only stopped, but accelerated tissue healing was initiated as well
- Protection of neurons against degeneration [2]: protect cultured cerebellar neurons against age-related and excitotoxin-induced degeneration
- Water solubility (in words) [3]: practically insoluble in water

SMILES: CCCCCCC(C)(C)c1cc(O)c2c(c1)OC(C)(C)[C@H]1CC=C(CO)C[C@H]21 [Dexanabinol, (+)-(3S, 4S) -7-hydroxy-Δ^6-tetra hydrocannabinol-1,1-dimetylheptyl]
- oral bioavailability / systemic availability: poor oral bioavailability
- Water solubility ([3]; water): less than 50 μg/ml

SMILES: CCCCCc1cc(O)c2c(c1)OC(C)(C)[C@@H]1CCC(C)=C[C@@H]21 [THC, tetrahydrocannabinol]
- maximal plasma levels after oral dosing [4]: around 10 ng/ml

SMILES: C=C(C)[C@@H]1CCC(C)=C[C@H]1c1c(O)cc(CCCCC)cc1O [cannabidiol]
- Water solubility (in words) [3]: a few micrograms/ml or less

SMILES: CCCCCc1cc(O)c2c(c1)OC(C)(C)c1ccc(C)cc1-2 [cannabinol]
- Water solubility (in words) [3]: a few micrograms/ml or less

SMILES: CCCCCc1cc(O)c2c(c1)OC(C)(C)[C@@H]1CCC(C)=C[C@@H]21 [Δ^1 -THC, Δ^1 -tetrahydrocannabinol]
- Water solubility (in words) [3]: a few micrograms/ml or less

SMILES: CCCCCc1cc(O)c2c(c1)OC(C)(C)[C@@H]1CC=C(C)C[C@@H]21 [Δ^6 -THC, Δ^6 -tetrahydrocannabinol]
- Water solubility (in words) [3]: a few micrograms/ml or less
